The values that follow come from patent US4511565A, “7α-Acylthio-1α,2α-methylene- 3-oxo-17α-pregn-4-ene-21,17-carbolactones, their production and pharmaceutical preparations containing them” (Schering Aktiengesellschaft, priority 1982, dated 1985).

Entries after “also recorded” stand apart in the source; their conditions may differ.

For one series, the system named is aldosterone. Description: antialdosterone effect in the experimental model by Hollmann. The class given is in vivo. The note with it: spironolactone=1. An excerpt: The new compounds of Formula I have the properties of neutralizing or reversing the effect of aldosterone or deoxycorticosterone on the elimination of sodium and potassium. The compounds according to this invention are thus suited for the treatment of certain forms of hypertension, e.g., those treatable by spironolactone, edemas, primary aldosteronism, and other endocrine disturbances caused by aldosterone. They can also be used as diuretics.

A further series concerns male patients. As to conditions: extended treatment of male patients; traced to antiandrogenic side effect; cited from earlier work.
For the next series, the system named is women. The note with it: ascribed to the gestagenic side effect; cited from earlier work.

`CC(=O)S[C@@H]1CC2=CC(=O)[C@@H]3C[C@@H]3[C@]2(C)[C@H]2CC[C@@]3(C)[C@@H]([C@@H]4C[C@@H]4[C@@]34CCC(=O)O4)[C@H]12` [B, 7α-acetylthio-1α,2α;15β,16β-dimethylene-3-oxo-17α-pregn-4-ene-21,17-carbolactone]: the Relative antialdosterone effect with aldosterone was 2-3.
`CC(=O)S[C@@H]1CC2=CC(=O)[C@@H]3C[C@@H]3[C@]2(C)[C@H]2CC[C@@]3(C)[C@@H]([C@H]4C[C@H]4[C@@]34CCC(=O)O4)[C@H]12` [C, 7α-acetylthio-1α,2α;15α,16α-dimethylene-3-oxo-17α-pregn-4-ene-21,17-carbolactone]: the Relative antialdosterone effect in the series with aldosterone is on record as 3-4.
Consider `CC(=O)S[C@@H]1CC2=CC(=O)CC[C@]2(C)[C@H]2CC[C@@]3(C)[C@@H](CC[C@@]34CCC(=O)O4)[C@H]12` [Spironolactone, spironolactone], for which, in the series with male patients, the “undesirable endocrine side effects in men” value is reported as “gynecomastia; also recorded: impotence”. Further, the “side effects on women” value with women is listed as “amenorrhea; also recorded: menstrual irregularities”.
